Test results as given in the supplement of paper PMC10627819.

Assays:
S. aureus DSM 20231 = experiment: Bliss interaction score (quartile over a dose matrix) (fitness difference); higher = more antagonism (negative = synergy)
Summary of the method: (§1)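 At entry into stationary phase, OD595 was recorded and divided by the robust mean of the no-drug wells on that plate, with any value above 1 set to 1. This gives the fitness measure used throughout. Single-drug fitness was inferred from combination data, and the Bliss score, observed minus product-expected fitness, is shown as quartiles across technical, biological and donor/recipient replicates.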

S. aureus Newman [1] = experiment: as above
Summary of the method: as §1

B. subtilis 168 [2] = experiment: as above
Summary of the method: as §1

S. pneumoniae D39V [3] = experiment: as above
Summary of the method: as §1

S. aureus Newman [4] = experiment: fitness (endpoint OD595 vs no drug) (fraction); higher = more growth
Summary of the method: (§2)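 Plates with 384 wells were inoculated at OD595 0.01 using 30 µl of TSB, LB Lennox or CY, or 55 µl for S. pneumoniae. Incubation was at 37 °C, with OD595 measured every 30 min for 14 h. Fitness is the stationary-phase transition optical density over the robust mean of no-drug control wells, after first-reading background subtraction; it is capped at 1.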

B. subtilis 168 [5] = experiment: as above
Summary of the method: as §2

S. pneumoniae D39V [6] = experiment: as above
Summary of the method: as §2
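Wherever Bliss interaction score (quartile over a dose matrix) is given: first quartile when negative (synergy) and third quartile when positive (antagonism).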

CCCCCCCCCC(=O)N[C@@H](Cc1c[nH]c2ccccc12)C(=O)N[C@H](CC(N)=O)C(=O)N[C@@H](CC(=O)O)C(=O)N[C@@H]1C(=O)NCC(=O)N[C@@H](CCCN)C(=O)N[C@@H](CC(=O)O)C(=O)N[C@H](C)C(=O)N[C@@H](CC(=O)O)C(=O)NCC(=O)N[C@H](CO)C(=O)N[C@@H]([C@H](C)CC(=O)O)C(=O)N[C@@H](CC(=O)c2ccccc2N)C(=O)O[C@@H]1C [Daptomycin] + CN[C@@H]1[C@H](O[C@H]2[C@H](O[C@H]3[C@H](O)[C@@H](O)[C@H](N=C(N)N)[C@@H](O)[C@@H]3N=C(N)N)O[C@@H](C)[C@]2(O)C=O)O[C@@H](CO)[C@H](O)[C@H]1O [Streptomycin]
Details | Bliss interaction score
B. subtilis 168 [2] | -0.0625
S. aureus DSM 20231 | 0.0838
S. aureus Newman [1] | 0.0589
S. pneumoniae D39V [3] | 0.103

fitness
Details | partner 1 µg/mL | partner 2 µg/mL | partner 4 µg/mL | partner 8 µg/mL
B. subtilis 168 [5], first compound 0.125 µg/mL | – | 0.954 | 0.651 | 0.0465
B. subtilis 168 [5], first compound 0.25 µg/mL | – | 0.977 | – | 0.0589
B. subtilis 168 [5], first compound 0.5 µg/mL | – | 0.923 | – | 0.0321
S. aureus Newman [4], first compound 0.125 µg/mL | 0.971 | 0.988 | – | –
S. aureus Newman [4], first compound 0.25 µg/mL | 0.964 | 0.985 | – | –
S. aureus Newman [4], first compound 0.5 µg/mL | 0.986 | 0.973 | – | –
S. pneumoniae D39V [6], first compound 1 µg/mL | – | 0.926 | 0.902 | 0.825
S. pneumoniae D39V [6], first compound 2 µg/mL | – | 0.955 | 0.909 | 0.876
S. pneumoniae D39V [6], first compound 4 µg/mL | – | 0.95 | 0.924 | 0.86

fitness, one replicate
Details | first compound 1 µg/mL | first compound 2 µg/mL | first compound 4 µg/mL
B. subtilis 168 [5], partner 2 µg/mL | 0.654 | – | –
B. subtilis 168 [5], partner 4 µg/mL | 0.245 | – | –
B. subtilis 168 [5], partner 8 µg/mL | 0.0183 | – | –
S. pneumoniae D39V [6], partner 16 µg/mL | 0.795 | 0.804 | 0.773

CCN(CC)CCOC(=O)c1ccc(N)cc1 [Procaine] + CN(C)c1cc(NC(=O)CNC(C)(C)C)c(O)c2c1C[C@H]1C[C@H]3[C@H](N(C)C)C(O)=C(C(N)=O)C(=O)[C@@]3(O)C(O)=C1C2=O [Tigecycline]
Details | Bliss interaction score
B. subtilis 168 [2] | -0.0701
S. aureus DSM 20231 | 0.0953
S. aureus Newman [1] | 0.0571
S. pneumoniae D39V [3] | 0.0455

fitness
Details | first compound 85.5 µg/mL | first compound 171 µg/mL | first compound 342 µg/mL
B. subtilis 168 [5], partner 0.039 µg/mL | 0.94 | 0.978 | 0.929
B. subtilis 168 [5], partner 0.078 µg/mL | 0.916 | 0.96 | 0.858
B. subtilis 168 [5], partner 0.156 µg/mL | 0.895 | 0.909 | 0.856
S. aureus Newman [4], partner 0.039 µg/mL | 0.955 | 0.965 | 0.928
S. aureus Newman [4], partner 0.078 µg/mL | ≥ 1 | 0.986 | 0.996
S. aureus Newman [4], partner 0.156 µg/mL | ≥ 1 | ≥ 1 | 0.991
S. pneumoniae D39V [6], partner 0.65 µg/mL | 0.974 | 0.993 | 1
S. pneumoniae D39V [6], partner 1.3 µg/mL | 0.946 | 0.952 | 0.957
S. pneumoniae D39V [6], partner 2.6 µg/mL | 0.927 | 0.935 | 0.932

fitness, B. subtilis 168 [5], one replicate
Details | first compound 85.5 µg/mL | first compound 171 µg/mL | first compound 342 µg/mL
partner 0.125 µg/mL | ≥ 1 | 0.985 | 0.974
partner 0.25 µg/mL | 0.891 | 0.917 | 0.917
partner 0.5 µg/mL | 0.913 | 0.916 | 0.905

CCN(CC)CCOC(=O)c1ccc(N)cc1 [Procaine] + CN[C@@H]1[C@H](O[C@H]2[C@H](O[C@H]3[C@H](O)[C@@H](O)[C@H](N=C(N)N)[C@@H](O)[C@@H]3N=C(N)N)O[C@@H](C)[C@]2(O)C=O)O[C@@H](CO)[C@H](O)[C@H]1O [Streptomycin]
Details | Bliss interaction score
B. subtilis 168 [2] | -0.117
S. aureus DSM 20231 | 0.0982
S. aureus Newman [1] | 0.0657
S. pneumoniae D39V [3] | 0.0529

fitness
Details | first compound 85.5 µg/mL | first compound 171 µg/mL | first compound 342 µg/mL
B. subtilis 168 [5], partner 2 µg/mL | 0.914 | 0.921 | 0.94
B. subtilis 168 [5], partner 8 µg/mL | 0.0423 | 0.0261 | 0.0278
S. aureus Newman [4], partner 1 µg/mL | 0.994 | 0.963 | 0.957
S. aureus Newman [4], partner 2 µg/mL | 0.983 | 0.96 | 0.985
S. pneumoniae D39V [6], partner 2 µg/mL | 0.985 | 0.988 | 0.933
S. pneumoniae D39V [6], partner 4 µg/mL | 0.984 | 0.984 | 0.945
S. pneumoniae D39V [6], partner 8 µg/mL | 0.952 | 0.92 | 0.9

S. pneumoniae D39V [6], partner 16 µg/mL, one replicate
Details | fitness
first compound 85.5 µg/mL | 0.815
first compound 171 µg/mL | 0.759
first compound 342 µg/mL | 0.75
